The results in this text go back to the NIST ThermoML archive (doi:10.1021/je400029t).

Numbers after ± are expanded uncertainties.

A short description of series [1]: Molar enthalpy of transition or fusion. Conditions: Crystal; DSC.
For series [2] the following is noted: Crystal; DTA.

For the molecule `COc1ccc(C(=O)O)cc1OC` [3,4-dimethoxybenzoic acid], in series [1], the “Molar enthalpy of transition or fusion” value came out at 7.07 ± 0.311 kcal/mol. The Normal melting temperature in series [2] was determined as 179.97 ± 0.53 °C.
